Results published in patent publication US6878713B2, “Generation triple-targeting, chiral, broad-spectrum antimicrobial 7-substituted piperidino-quinolone carboxylic acid derivatives, their preparation, compositions and use as medicaments” (Wockhardt Limited, priority 2001, dated 2005).
In brackets after ≈: the same amount, converted by molar mass. Read-outs that look alike come from different tables or passages of the source.

How the values were obtained:
[1] = tested on: Fluoroquinolone Sensitive Strains; assay: In-vitro antimicrobial test (MIC, two-fold serial agar dilution, NCCLS), Table 17; type: cell-based
Protocol: (§1) The test method was in accordance with the standard NCCLS protocol (Methods for Dilution Antimicrobial Susceptibility Tests for Bacteria that grow Aerobicially, Approved Standards, M7-A5, Fifth Edition, January 2000).
(§2) The antibacterial activities (minimum inhibitory concentration: MIC, […]) were determined by using the two-fold serial agar dilution method recommended by NCCLS. The media used for preculture and main culture were Tryptic Soya broth (Difco) and Mueller Hinton medium (Difco), respectively. The Mueller Hinton agar was supplemented with 5% sheep blood for streptococci. Overnight cultures were diluted with buffered saline (pH 7.2) to the final cell density of 5×10^6-10^7 CFU/ml, and each bacterial suspension was applied with a replicator (Denley's multipoint inoculator, UK) onto a series of Mueller-Hinton agar plates containing antibacterial agents at various concentrations. Final inoculum was approximately 10^4 CFU/spot. The plates were incubated for 18 hrs at 37° C. The MIC was defined as the lowest concentration of an antibacterial agent that inhibits the development of visible microbial growth on agar.

[2] = tested on: Fluoroquinolone-Resistant Strains; assay: In-vitro antimicrobial test (MIC, two-fold serial agar dilution, NCCLS), Table 18; type: cell-based
Protocol: as §1, §2

[3] = tested on: Trovafloxacin-Resistant and Vancomycin-Resistant Enterococci; assay: In-vitro antimicrobial test (MIC, two-fold serial agar dilution, NCCLS), Table 19; type: cell-based
Text: The comparative antimicrobial activity of representative compounds, of the invention and reference compounds against various sensitive and resistant microorganisms is given in Tables 17 to 20. The test method was in accordance with the standard NCCLS protocol (Methods for Dilution Antimicrobial Susceptibility Tests for Bacteria that grow Aerobicially, Approved Standards, M7-A5, Fifth Edition, January 2000).
as §2

[4] = tested on: J 744 (mouse macrophage); assay: Cytotoxicity test (Alamar blue), J 744 cells, Table 23; type: cell-based; details: 3 hrs drug exposure, further 96 hrs incubation
Protocol: Compounds were evaluated for their cytotoxic potential against two celllines viz. […] Cytotoxic drugs inhibit this reaction resulting into blue coloured well. Minimum drug concentration inhibiting Alamar blue color change i.e. resulting into blue coloured wells for a given drug is considered cytotoxic concentration.

[5] = tested on: V79 (Chinese Hamster Lung); assay: Cytotoxicity test (Alamar blue), V79 cells, Table 23; type: cell-based; details: 3 hrs drug exposure, further 96 hrs incubation
Protocol: Compounds were evaluated for their cytotoxic potential against two […] viz. […] Cells were grown for 3-4days in a culture flask using D-MEM (Dulbecco's Modified Eagle. […] Freshly grown cells were distributed in microtiter plates at a cell density of 10^5-10^6 cells/well and allowed to […] form monolayer by incubating the microtiter plate at […] for 24 hrs. […] Following 3 hrs. of drug exposure, cell were washed with D-MEM and incubated further for 96 hrs. Cytotoxic effects of drugs were monitored through daily microscopic observation and by ascertaining the metabolic status through redox indicator Alamar blue. Healthy actively metabolising cells bring about colour change of Alamar blue from blue to pink within an overnight incubation. Cytotoxic drugs inhibit this reaction resulting into blue coloured well. Minimum drug concentration inhibiting Alamar blue color change i.e. resulting into blue coloured wells for a given drug is considered cytotoxic concentration.

[6] = tested on: MRSA 5027; assay: Resistance to resistance development (sequential passages through drug-containing media); type: cell-based; details: Staphylococcus aureus
[7] = tested on: Multidrug-Resistant (MDR) Pneumococcal Infections; assay: In-vivo antimicrobial test, systemic infection model (mouse septicemia), Table 22; set-up: species or system Swiss male and female mice; details: oral dosing 1 hour and 5 hours post-infection, survival on day 7, strain resistant to β-lactams, macrolides and fluoroquinolones; for ED50: Streptococcus pneumoniae, po, read-out: ED50 p.o., MDR S. pneumoniae 718; for ED50 p.o., MDR S. pneumoniae 718: hydrochloride
Protocol: The in vivo efficacy was studied through mouse septicemia model of infection in Swiss male and female mice (4 weeks old, 20+2 g weight) using 6 animals in each group. Infective organisms were inoculated intraperitonially. Compound were administered by oral route 1 hour and 5 hours post-infection. […] Appropriate comparators were included in the study.

[8] = Enterococcus faecalis, ATCC29212, E. faecalis ATCC 29212
[9] = Escherichia coli, ATCC25922, E. coli ATCC 25922
[10] = Pseudomonas aeruginosa, P. aeruginosa 27853
[11] = S. sanguis ATCC 10556 (Viridans Streptococci group)
[12] = Staphylococcus aureus, ATCC 25923 / MSSA, MSSA ATCC 25923
[13] = Streptococcus pneumoniae, ATCC49619, S. pneumoniae ATCC 49619
[14] = Staphylococcus aureus, MRSA, MRSA 032
[15] = Streptococcus mitis, Cipro^R S. mitis 938
[16] = Streptococcus pneumoniae, FQ^R S. pneumoniae 718
[17] = Staphylococcus epidermidis, trovafloxacin-resistant methicillin-resistant S. epidermidis (MRSE) 110, 18 hrs at 37° C, read-out: MICs, Trova-Resist MRSE 110
[18] = vancomycin-resistant Enterococcus faecium (VRE) 336, 18 hrs at 37° C, read-out: MICs, VRE 336
[19] = read-out: MIC against MRSA 5027, initially
[20] = read-out: MIC against MRSA 5027 after 10 passages in drug containing medium

Compound: Cc1c(N2CC[C@@H](O)[C@H](C)C2)c(F)cc2c(=O)c(C(=O)O)cn(C3CC3)c12 (relative stereo) [Compound 94, trans-1-Cyclopropyl-6-fluoro-8-methyl-7-(4-hydroxy-3-methyl-1-piperidinyl)-1,4-dihydro-4-oxo-quinoline-3-carboxylic acid]
- MIC [1, 8]: 0.1 µg/mL (≈ 0.267 µM)
- MIC [1, 9]: 0.2 µg/mL (≈ 0.534 µM)
- MIC [1, 10]: 3.12 µg/mL (≈ 8.33 µM)
- MIC [1, 11]: 0.025 µg/mL (≈ 0.0668 µM)
- MIC [1, 12]: 0.003 µg/mL (≈ 0.00801 µM)
- MIC [1, 13]: 0.025 µg/mL (≈ 0.0668 µM)
- MIC ([2]; Cipro^R S. sanguis 941): 0.4 µg/mL (≈ 1.07 µM)
- MIC [2, 14]: 0.2 µg/mL (≈ 0.534 µM)
- MIC [2, 15]: 0.4 µg/mL (≈ 1.07 µM)
- MIC [2, 16]: 0.8 µg/mL (≈ 2.14 µM)
- MIC [3, 17]: 0.4 µg/mL (≈ 1.07 µM)
- MIC [3, 18]: 3.12 µg/mL (≈ 8.33 µM)
- Cytotoxic concentration, J 744 Macrophage [4]: >1000 µg/mL
- Cytotoxic concentration, V 79 CHL [5]: >1000 µg/mL

Compound: COc1c(N2C[C@@H]3CCCN[C@@H]3C2)c(F)cc2c(=O)c(C(=O)O)cn(C3CC3)c12 [Moxifloxacin, reference compound]
- MIC [1, 8]: 0.2 µg/mL (≈ 0.498 µM)
- MIC [1, 9]: 0.05 µg/mL (≈ 0.125 µM)
- MIC [1, 11]: 0.4 µg/mL (≈ 0.996 µM)
- MIC [1, 12]: 0.05 µg/mL (≈ 0.125 µM)
- MIC [1, 13]: 0.2 µg/mL (≈ 0.498 µM)
- MIC [6, 19]: 0.4 µg/mL (≈ 0.996 µM)
- ED50 [7]: > 100 mg/kg

Compound: COc1c(N2CCC(N)C(C)(C)C2)c(F)cc2c(=O)c(C(=O)O)cn(C3CC3)c12.Cl (racemic) [Compound 18, (±)-1-Cyclopropyl-6-fluoro-1,4-dihydro-8-methoxy-7-(4-amino-3,3-dimethyl-1-piperidinyl)-4-oxo-quinoline-3-carboxylic acid hydrochloride]
- MIC [2, 14]: 0.8 µg/mL
- MIC [2, 16]: 0.8 µg/mL
- MIC [6, 19]: 0.4 µg/mL
- MIC [6, 20]: 0.4 µg/mL
- ED50 [7]: 30 mg/kg
- Cytotoxic concentration, J 744 Macrophage [4]: >1000 µg/mL
- Cytotoxic concentration, V 79 CHL [5]: >1000 µg/mL

Compound: COc1c(N2CCC(N)C(C)(C)C2)c(F)cc2c(=O)c(C(=O)O)cn(C3CC3)c12.Cl (single isomer, unassigned; (-)) [Compound 26, (−)-1-Cyclopropyl-6-fluoro-1,4-dihydro-8-methoxy-7-(4-amino-3,3-dimethyl-1-piperidinyl)-4-oxo-quinoline-3-carboxylic acid hydrochloride]
- MIC [2, 14]: 0.8 µg/mL
- MIC [2, 16]: 0.8 µg/mL
- ED50 p.o., MDR S. pneumoniae 718 [7]: 50 mg/kg
- Cytotoxic concentration, J 744 Macrophage [4]: >1000 µg/mL
- Cytotoxic concentration, V 79 CHL ([5]; hydrochloride): >1000 µg/mL

Compound: Cc1c(N2CC[C@H](N)[C@H](C)C2)c(F)cc2c(=O)c(C(=O)O)cn(C3CC3)c12.Cl (relative stereo) [Compound 100, cis-1-Cyclopropyl-6-fluoro-1,4-dihydro-8-methyl-7-(4-amino-3-methyl-1-piperidinyl)-4-oxo-quinoline-3-carboxylic acid hydrochloride]
- MIC [1, 8]: 0.1 µg/mL
- MIC [1, 9]: 0.0012 µg/mL
- MIC [1, 10]: 3.12 µg/mL
- MIC [1, 11]: 0.025 µg/mL
- MIC [1, 12]: 0.025 µg/mL
- MIC [1, 13]: 0.05 µg/mL
- MIC ([2]; Cipro^R S. sanguis 941): 3.12 µg/mL
- MIC [2, 14]: 1.56 µg/mL
- MIC [2, 15]: 1.56 µg/mL
- MIC [2, 16]: 1.56 µg/mL
- ED50 [7]: 30 mg/kg
- Cytotoxic concentration, J 744 Macrophage [4]: 1000 µg/mL
- Cytotoxic concentration, V 79 CHL [5]: 125 µg/mL
- melting point: 255 to 260 °C

Compound: COc1c(N2CCNC(C)C2)c(F)cc2c(=O)c(C(=O)O)cn(C3CC3)c12 (stereo not drawn) [Gatifloxacin]
- ED50 [7]: > 100 mg/kg

Compound: N[C@@H]1[C@H]2CN(c3nc4c(cc3F)c(=O)c(C(=O)O)cn4-c3ccc(F)cc3F)C[C@@H]12 [Trovafloxacin]
- MIC [6, 19]: 0.4 µg/mL (≈ 0.961 µM)
- MIC [6, 20]: 50 µg/mL (≈ 120 µM)
- Cytotoxic concentration, J 744 Macrophage [4]: 500 µg/mL

Compound: C[C@H]1COc2c(N3CCN(C)CC3)c(F)cc3c(=O)c(C(=O)O)cn1c23 [S-(−)-levofloxacin, reference compound]
- MIC [1, 8]: 0.8 µg/mL (≈ 2.21 µM)
- MIC [1, 9]: 0.025 µg/mL (≈ 0.0692 µM)
- MIC [1, 10]: 3.12 µg/mL (≈ 8.63 µM)
- MIC [1, 11]: 1.56 µg/mL (≈ 4.32 µM)
- MIC [1, 12]: 0.2 µg/mL (≈ 0.553 µM)
- MIC [1, 13]: 0.8 µg/mL (≈ 2.21 µM)
- MIC ([2]; Cipro^R S. sanguis 941): 12.5 µg/mL (≈ 34.6 µM)
- MIC [2, 14]: 6.25 µg/mL (≈ 17.3 µM)
- MIC [2, 15]: 25 µg/mL (≈ 69.2 µM)
- MIC [2, 16]: 12.5 µg/mL (≈ 34.6 µM)
- ED50 [7]: > 100 mg/kg

Compound: Cc1c(N2CCC(N)C(C)(C)C2)c(F)cc2c(=O)c(C(=O)O)cn(C3CC3)c12.Cl (racemic) [Compound 102, (±)-1-Cyclopropyl-6-fluoro-1,4-dihydro-8-methyl-7-(4-amino-3,3-dimethyl-1-piperidinyl)-4-oxo-quinoline-3-carboxylic acid hydrochloride]
- MIC [1, 8]: 0.05 µg/mL
- MIC [1, 9]: 0.025 µg/mL
- MIC [1, 10]: 3.12 µg/mL
- MIC [1, 11]: 0.025 µg/mL
- MIC [1, 12]: 0.025 µg/mL
- MIC [1, 13]: 0.025 µg/mL
- MIC ([2]; Cipro^R S. sanguis 941): 1.56 µg/mL
- MIC [2, 14]: 0.8 µg/mL
- MIC [2, 15]: 1.56 µg/mL
- MIC [2, 16]: 0.8 µg/mL
- ED50 [7]: 30 mg/kg
- Cytotoxic concentration, J 744 Macrophage [4]: 1000 µg/mL
- Cytotoxic concentration, V 79 CHL [5]: 750 µg/mL

Compound: Cc1c(N2CC[C@H](O)[C@H](C)C2)c(F)cc2c(=O)c(C(=O)O)cn(C3CC3)c12 (relative stereo) [Compound 93, cis-1-Cyclopropyl-6-fluoro-8-methyl-7-(4-hydroxy-3-methyl-1-piperidinyl)-1,4-dihydro-4-oxo-quinoline-3-carboxylic acid]
- MIC [1, 8]: 0.05 µg/mL (≈ 0.134 µM)
- MIC [1, 9]: 0.2 µg/mL (≈ 0.534 µM)
- MIC [1, 10]: 3.12 µg/mL (≈ 8.33 µM)
- MIC [1, 11]: 0.05 µg/mL (≈ 0.134 µM)
- MIC [1, 12]: 0.003 µg/mL (≈ 0.00801 µM)
- MIC [1, 13]: 0.025 µg/mL (≈ 0.0668 µM)
- MIC ([2]; Cipro^R S. sanguis 941): 0.4 µg/mL (≈ 1.07 µM)
- MIC [2, 14]: 0.2 µg/mL (≈ 0.534 µM)
- MIC [2, 15]: 0.4 µg/mL (≈ 1.07 µM)
- MIC [2, 16]: 0.8 µg/mL (≈ 2.14 µM)
- MIC [3, 17]: 0.4 µg/mL (≈ 1.07 µM)
- MIC [3, 18]: 3.12 µg/mL (≈ 8.33 µM)
- Cytotoxic concentration, J 744 Macrophage [4]: >1000 µg/mL
- Cytotoxic concentration, V 79 CHL [5]: >1000 µg/mL
- melting point: 206 to 210 °C

Compound: COc1c(N2CCC(N)C(C)(C)C2)c(F)cc2c(=O)c(C(=O)O)cn(C3CC3)c12.Cl (single isomer, unassigned; (+)) [Compound 22, (+)-1-Cyclopropyl-6-fluoro-1,4-dihydro-8-methoxy-7-(4-amino-3,3-dimethyl-1-piperidinyl)-4-oxo-quinoline-3-carboxylic acid hydrochloride]
- MICs ([2]; Cipro^R S. sanguis 941, hydrochloride): 0.2 µg/mL
- MICs ([2]; MRSA 032): 0.8 µg/mL
- MIC [2, 15]: 0.8 µg/mL
- ED50 p.o., MDR S. pneumoniae 718 [7]: 20 mg/kg
- Cytotoxic concentration, J 744 Macrophage [4]: >1000 µg/mL
- Cytotoxic concentration, V 79 CHL ([5]; hydrochloride): 1000 µg/mL
